{"source": "patent US11524966B1", "about": "(Valo Early Discovery, Inc., priority 2017, dated 2022)"}
{"target": "T1, USP25 (USP25-His6, Boston Biochem E-546) (Homo sapiens, UniProt Q9UHP3)", "T1 construct": "His6; purchased Boston Biochem E-546", "T1 sequence (Q9UHP3 1-1055)": "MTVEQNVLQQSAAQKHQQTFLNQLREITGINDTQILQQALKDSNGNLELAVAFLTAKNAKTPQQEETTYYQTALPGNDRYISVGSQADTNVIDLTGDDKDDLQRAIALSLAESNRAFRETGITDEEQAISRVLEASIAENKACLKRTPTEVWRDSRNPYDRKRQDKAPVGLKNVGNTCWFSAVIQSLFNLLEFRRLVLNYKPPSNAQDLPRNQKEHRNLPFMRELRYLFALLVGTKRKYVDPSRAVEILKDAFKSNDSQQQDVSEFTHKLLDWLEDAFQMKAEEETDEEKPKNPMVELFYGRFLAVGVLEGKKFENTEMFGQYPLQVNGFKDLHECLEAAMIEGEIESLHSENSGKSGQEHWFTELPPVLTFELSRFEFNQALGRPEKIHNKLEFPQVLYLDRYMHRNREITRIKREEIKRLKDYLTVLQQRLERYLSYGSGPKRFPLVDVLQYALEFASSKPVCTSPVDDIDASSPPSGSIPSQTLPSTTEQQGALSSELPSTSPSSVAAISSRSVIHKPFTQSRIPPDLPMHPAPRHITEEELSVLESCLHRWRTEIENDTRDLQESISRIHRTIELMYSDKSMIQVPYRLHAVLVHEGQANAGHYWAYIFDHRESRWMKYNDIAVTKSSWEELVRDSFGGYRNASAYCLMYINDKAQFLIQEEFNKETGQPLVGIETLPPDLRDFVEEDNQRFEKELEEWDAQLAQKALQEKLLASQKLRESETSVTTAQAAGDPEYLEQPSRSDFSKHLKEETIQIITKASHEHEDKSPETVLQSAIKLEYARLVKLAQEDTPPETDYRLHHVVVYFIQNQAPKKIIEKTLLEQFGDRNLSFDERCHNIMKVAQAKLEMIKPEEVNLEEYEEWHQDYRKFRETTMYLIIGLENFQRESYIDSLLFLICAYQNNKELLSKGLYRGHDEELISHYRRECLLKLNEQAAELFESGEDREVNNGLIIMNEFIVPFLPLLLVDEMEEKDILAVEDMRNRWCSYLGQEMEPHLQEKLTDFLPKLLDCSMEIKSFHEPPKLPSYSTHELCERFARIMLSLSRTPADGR", "assay": "Ubiquitin-Rhodamine 110 Assay for USP25 Activity, Example A-2", "assay_type": "biochemical", "conditions": "Ub-Rh110 assay, Example A-2; read-out: USP25 A-2 IC50 range", "outline": "(§1)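 Read-out: Rh110 fluorescence (ex 485, em 535 nm) after 45 min RT turnover of 25 nM Ub-Rh110 by 75 pM USP25-His6, quenched with 10 mM citric acid. Compounds at 25 μM–1.3 nM, preincubated 30 min with enzyme. IC50 from 4-parameter logistic fit.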", "units": {"IC50": "nM"}}
{"smiles": "Cc1cc(C)c2c(N)c(C(=O)N[C@H]3COc4cc(N5CC6CNCC(C5)O6)ccc4C3)sc2n1", "note": "[Example 2-20, N-((3R)-7-(9-oxa-3,7-diazabicyclo[3.3.1]nonan-3-yl)chroman-3-yl)-3-amino-4,6-dimethylthieno[2,3-b]pyridine-2-carboxamide]", "IC50": "1 to 50"}
{"smiles": "Cc1cc(C(F)(F)F)c2c(N)c(C(=O)N[C@H]3COc4cc(N5CC6CC(C5)N6)ccc4C3)sc2n1", "note": "[Example 2-21]", "IC50": "50 to 200"}
{"smiles": "Cc1cc(C(F)(F)F)c2c(N)c(C(=O)N[C@H]3COc4cc(N5CC6CNCC(C5)C6(F)F)ccc4C3)sc2n1", "note": "[Example 2-22, 3-amino-N-((3R)-7-(9,9-difluoro-3,7-diazabicyclo[3.3.1]nonan-3-yl)chroman-3-yl)-6-methyl-4-(trifluoromethyl)thieno[2,3-b]pyridine-2-carboxamide]", "IC50": "1 to 50"}
{"smiles": "Cc1cc(C(F)(F)F)c2c(N)c(C(=O)N[C@H]3COc4cc(N5CC6CNCC(C5)O6)ccc4C3)sc2n1", "note": "[Example 2-23, N-((3R)-7-(9-oxa-3,7-diazabicyclo[3.3.1]nonan-3-yl)chroman-3-yl)-3-amino-6-methyl-4-(trifluoromethyl)thieno[2,3-b]pyridine-2-carboxamide]", "IC50": "1 to 50"}
{"smiles": "O=C(N[C@H]1COc2cc(N3CC4CCC(C3)N4)ccc2C1)c1cnc2c(c1)C1(CCN2)CC1", "note": "[Example 2-24, N-((3R)-7-(3,8-diazabicyclo[3.2.1]octan-3-yl)chroman-3-yl)-2′,3′-dihydro-1′H-spiro[cyclopropane-1,4′-[1,8]naphthyridine]-6′-carboxamide]", "IC50": "200 to 2000"}
{"smiles": "O=C(N[C@H]1COc2cc(N3CC4CCC(C3)N4)ccc2C1)c1ccc(NCc2ccccc2)nc1", "note": "[Example 2-25, N-((3R)-7-(3,8-diazabicyclo[3.2.1]octan-3-yl)chroman-3-yl)-6-(benzylamino)nicotinamide]", "IC50": "50 to 200"}
{"smiles": "Cc1nc2sc(C(=O)N[C@H]3COc4cc(N5CC6CC(C5)N6)ccc4C3)c(N)c2s1", "note": "[Example 2-26, N-((3R)-7-(3,6-diazabicyclo[3.1.1]heptan-3-yl)chroman-3-yl)-6-amino-2-methylthieno[2,3-d]thiazole-5-carboxamide]", "IC50": "200 to 2000"}
{"smiles": "Cc1nc2sc(C(=O)N[C@H]3COc4cc(N5CC6CCCC(C5)N6)ccc4C3)c(N)c2s1", "note": "[Example 2-27]", "IC50": "200 to 2000"}
{"smiles": "Cc1nc2sc(C(=O)N[C@H]3COc4cc(N5CC6CNCC(C5)C6(F)F)ccc4C3)c(N)c2s1", "note": "[Example 2-28, 6-amino-N-((3R)-7-(9,9-difluoro-3,7-diazabicyclo[3.3.1]nonan-3-yl)chroman-3-yl)-2-methylthieno[2,3-d]thiazole-5-carboxamide]", "IC50": "50 to 200"}
{"smiles": "CCn1ccc2cc(C(=O)N[C@H]3COc4cc(N5CC6CCCC(C5)N6)ccc4C3)nnc21", "note": "[Example 2-29, N-((3R)-7-(3,9-diazabicyclo[3.3.1]nonan-3-yl)chroman-3-yl)-7-ethyl-7H-pyrrolo[2,3-c]pyridazine-3-carboxamide]", "IC50": "200 to 2000"}
{"smiles": "CCn1ccc2cc(C(=O)N[C@H]3COc4cc(N5CC6CNCC(C5)C6(F)F)ccc4C3)cnc21", "note": "[Example 2-30, N-((3R)-7-(9,9-difluoro-3,7-diazabicyclo[3.3.1]nonan-3-yl)chroman-3-yl)-1-ethyl-1H-pyrrolo[2,3-b]pyridine-5-carboxamide]", "IC50": "1 to 50"}
{"smiles": "Cc1cc(C)c2c(N)c(C(=O)N[C@H]3COc4c(C#N)c(N5CCNCC5)cc(F)c4C3)sc2n1", "note": "[Example 2-31, (R)-3-amino-N-(8-cyano-5-fluoro-7-(piperazin-1-yl)chroman-3-yl)-4,6-dimethylthieno[2,3-b]pyridine-2-carboxamide]", "IC50": "200 to 2000"}
{"smiles": "Cc1cc(C)c2c(N)c(C(=O)N[C@H]3COc4cc(N5CCNCC5)c(C#N)c(F)c4C3)sc2n1", "note": "[Example 2-32, (R)-3-amino-N-(6-cyano-5-fluoro-7-(piperazin-1-yl)chroman-3-yl)-4,6-dimethylthieno[2,3-b]pyridine-2-carboxamide]", "IC50": "1 to 50"}
{"smiles": "Cc1ccc2c(N)c(C(=O)N[C@H]3COc4cc(N5CC6CNCC(C5)C6(F)F)c(C#N)cc4C3)sc2n1", "note": "[Example 2-33, 3-amino-N-((3R)-6-cyano-7-(9,9-difluoro-3,7-diazabicyclo[3.3.1]nonan-3-yl)chroman-3-yl)-6-methylthieno[2,3-b]pyridine-2-carboxamide]", "IC50": "1 to 50"}
{"smiles": "[2H]C([2H])([2H])O[C@H]1CN(c2ccc3c(c2)OC[C@H](NC(=O)c2sc4nc(C)ccc4c2N)C3)C[C@@H]1N", "note": "[Example 2-38, 3-amino-N-((R)-7-((3S,4S)-3-amino-4-(methoxy-d3)pyrrolidin-1-yl)chroman-3-yl)-6-methylthieno[2,3-b]pyridine-2-carboxamide]", "IC50": "200 to 2000"}
{"target": "T1, USP25 (USP25-His6, Boston Biochem E-546)", "assay": "Ubiquitin-Rhodamine 110 Assay for USP25 Activity, Example A-2", "assay_type": "biochemical", "conditions": "Ubiquitin-Rhodamine 110 assay, Example A-2; read-out: USP25 A-2 IC50 range", "outline": "as §1", "units": {"IC50": "nM"}}
{"smiles": "Cc1cnc2c(N)c(C(=O)N[C@H]3CCc4nc(N5CCNCC5)ccc4C3)sc2n1", "note": "[Example 23-6, 7-amino-3-methyl-N-[(6S)-2-(piperazin-1-yl)-5,6,7,8-tetrahydroquinolin-6-yl]thieno[2,3-b]pyrazine-6-carboxamide]", "IC50": "200 to 2000"}
